Experimental data reported in PMC2579264 (European journal of pharmacology, 2008).
Substitutions are numbered along the chain they refer to.

Legend:
[1] = biological target: T1, human neuropeptide Y Y2 receptor, A^34A^35 (Homo sapiens, UniProt P49146, D35A/P34A); experiment: Compartmentalization: unmasking / depletion of surface sites, A^34A^35 mutant; format: cell-based
T1 sequence (P49146 1-381 P34A/D35A): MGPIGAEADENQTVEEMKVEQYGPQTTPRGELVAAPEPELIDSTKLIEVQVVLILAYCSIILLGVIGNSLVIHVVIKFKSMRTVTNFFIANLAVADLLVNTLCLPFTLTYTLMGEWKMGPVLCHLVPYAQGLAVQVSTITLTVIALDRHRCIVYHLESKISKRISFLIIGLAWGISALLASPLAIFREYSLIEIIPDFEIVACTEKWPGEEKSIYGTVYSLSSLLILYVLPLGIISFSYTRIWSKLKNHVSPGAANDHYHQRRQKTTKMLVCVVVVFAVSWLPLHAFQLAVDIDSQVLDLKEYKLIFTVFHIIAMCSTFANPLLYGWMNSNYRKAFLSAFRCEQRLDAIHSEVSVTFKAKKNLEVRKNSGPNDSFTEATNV

[2] = system: human neuropeptide Y Y2 receptor, wildtype; format: cell-based
[3] = system: Chinese hamster ovary (CHO) cells; experiment: Loss of cell protein or detachment of cells after digitonin pretreatment; format: cell-based; details: 10 µM digitonin pretreatment at 25 °C
[4] = system: CHO cells expressing the A^34A^35 receptor; experiment: Bio-Gel P-4 gel filtration of internalized agonist, A^34A^35 receptor; details: 100 pM [^125I] peptide YY(3–36); detected by [^125I] label; 2 to 15 min
[5] = system: neuropeptide Y Y2 receptor; experiment: Effect of heparin on binding of peptide YY; design: species or system human; details: heparin up to 30 µM; cell surface or particulate Y2 receptors
[6] = biological target: T2, human neuropeptide Y Y2 receptor, wildtype (P^34D^35) (Homo sapiens, UniProt P49146); experiment: Receptor-linked internalization of agonist, wildtype Y2 receptor; format: cell-based; details: heparin 5 µM, n = 12
T2 sequence (P49146 1-381): T1 sequence (P49146 1-381 P34A/D35A) with A34P, A35D

[7] = biological target: T1, human neuropeptide Y Y2 receptor, A^34A^35; experiment: Receptor-linked internalization of agonist, A^34A^35 mutant; format: cell-based; details: heparin 5 µM, n = 12

## pertussis toxin: pertussis toxin, used to deplete the compartmentalized surface Y2 sites
[1]
  basal cell surface binding of [^125I] peptide YY(3–36) after pertussis toxin: did not substantially reduce
  surface sites unmasked by the arsenical after pertussis toxin: almost eliminated
[2]
  basal cell surface binding of [^125I] peptide YY(3–36) after pertussis toxin: did not substantially reduce
  surface sites unmasked by the arsenical after pertussis toxin: strongly reduced

## C[C@@H]1CC[C@@]2(OC1)O[C@H]1[C@@H](O)[C@H]3[C@@H]4CC[C@H]5C[C@@H](O[C@@H]6O[C@H](CO)[C@H](O[C@@H]7O[C@H](CO)[C@@H](O)[C@H](O[C@@H]8OC[C@@H](O)[C@H](O)[C@H]8O)[C@H]7O[C@@H]7O[C@H](CO)[C@H](O)[C@H](O[C@@H]8O[C@H](CO)[C@@H](O)[C@H](O)[C@H]8O)[C@H]7O)[C@H](O)[C@H]6O)[C@H](O)C[C@]5(C)[C@H]4CC[C@]3(C)[C@H]1[C@@H]2C [digitonin]
[3]
  loss of cell protein or detachment of cells: did not result in a loss of cell protein or a detachment of cells

## N[C@@H](Cc1ccc(O)cc1)C(=O)O [C-terminal tyrosine, tyrosine]
[4]
  accumulation of product of peptide YY processing in cells: no accumulation

## heparin
[5]
  effect on affinity and capacity of binding of peptide YY(3–36): did not affect the affinity and capacity of the binding
[6]; 4 min
  increase of internalization of 100 pM [^125I] peptide YY(3–36): 19.4 ± 2%
[6]; 10 min
  increase of internalization of 100 pM [^125I] peptide YY(3–36): 4.8 ± 1.8%
[7]; 4 min
  increase of internalization of 100 pM [^125I] peptide YY(3–36): 43.5 ± 3.5%
[7]; 10 min
  increase of internalization of 100 pM [^125I] peptide YY(3–36): 25.1 ± 5%
